The source of these data is patent US20260055137A1, “NOVEL ISOLATED PEPTIDES, PROTEIN HYDROLYSATE COMPRISING THE SAID ISOLATED PEPTIDES AND USE THEREOF” (BETAGRO PUBLIC COMPANY LIMITED, priority 2022, published 2026).

Assay [1] deals with sensory panel. Put plainly: Taste threshold in water (intrinsic taste), duo-trio tests. The class given is in vivo. The procedure: (§1) The threshold concentrations of 21 newly identified peptides were determined in water for the intrinsic taste and in model broth (pH 6.0 adjusted with 1% formic acid) for the taste modulating properties, respectively (Table 4). The peptides were dissolved, serially diluted 1:2, and presented to the panel using duo-trio-tests with ascending concentrations as reported in literatures. The geometric mean of the last and the second to last concentration was calculated and taken as the individual recognition threshold. The threshold value of the sensory panel was approximated by averaging the threshold values of the individuals in two independent sessions. [formula] • wherein • Cp: the threshold of a panelist, • C1: the first correctly evaluated concentration, • C0: the first misjudged concentration [formula] • wherein • Cs: the thresholds of total panelists, • Cp: the threshold of a panelist, • n: the number of panel members

For assay [2], the system named is sensory panel. Put plainly: Taste threshold in model broth (taste modulating properties), duo-trio tests. The class given is in vivo. Particulars: for Taste properties in model broth / Threshold in model broth: model broth pH 6.0; for Threshold in model broth: taste modulating threshold; for Taste threshold in model broth: as listed in Table 6. The procedure:
as §1

The nature of assay [3]: Quantification of peptides in the hydrolyzed chicken plasma sample and DoT factors. The note with it: ratio of concentration in hydrolyzed chicken plasma sample to taste threshold in model broth. The source says: To identify the peptides which play a key role on taste-active and taste-modulating effects, not only the 21 newly identified peptides, but also literature-known basic tastants (e.g., amino acids, γ-glutamyl peptides, cations, anions, etc.) were quantified in the hydrolyzed chicken plasma sample. Focusing on the 21 newly identified peptides, the taste quality, taste thresholds, dose over threshold (DOT) factors and concentrations of the peptides in the hydrolyzed chicken plasma sample are shown in Table 6. The taste thresholds determined for the newly identified peptides (those are listed in Table 6) were used for the calculation of DoT factors which are defined as the ratio of the concentration of a substance and its corresponding taste threshold concentration. The DoT factors enable a first estimation of the taste contribution as substances with DoT factors≥1 most likely contribute directly to the perceived taste.

Assay [4] deals with sensory panel. Nature of the assay: Taste threshold in model broth (taste modulating properties), duo-trio tests. The class given is in vivo. The note with it: as listed in Table 7.
For another assay, the system named is Panelists. Nature of the assay: Salt isointensity test. The class given is in vivo. The note with it: for Average perceived salt isointensity / Salt-taste enhancing or reducing property: peptide 1 mmol/L in model broth containing 50 mM NaCl; for Enhancement or reduction: versus 50 mM NaCl, isointensity above 50 = enhancement, below 50 = reduction, peptide 1 mmol/L. The procedure: To investigate the effects of peptides on the perceived saltiness, a salt isointensity test was performed according to literatures. In salt-isointensity test, the peptides (1 mmol/L) were spiked into model broth containing 50 mM NaCl and the panelists were asked to evaluate the intensity of saltiness compared with the following NaCl concentrations of 30, 40, 50, 60, 70, and 80 mmol/L. The results are shown in Table 5.

Assay [5] deals with sensory panel. Put plainly: Taste threshold in commercial chicken soup, duo-trio tests. The class given is in vivo. The note with it: for Taste threshold in food products, Commercial chicken soup: 3 g powder in 150 mL, spiked at 2 mmol/L, diluted. An excerpt: To investigate the taste-modulating performance of the identified peptides in food products, the commercial chicken soup and model broth were used for further sensory experiments. According to the sensory experiment, the peptides such as Pro-Val-Leu-Lys (SEQ ID NO: 1), Pro-Leu-Pro-Arg (SEQ ID NO: 2), Glu-Ala-Glu-Phe-Asp (SEQ ID NO: 3), Pro-Gln-Pro-Glu-Arg (SEQ ID NO: 5), and Glu-Asp-Ala-Pro-Val-Leu-His (SEQ ID NO: 7) are spiked into the commercial chicken soup (Netto Marken-Discount AG&CO.KG, Maxhütte-Haidhof) and the model broth. According to the experiments, 3 g of the commercial chicken soup powder was dissolved in 150 mL boiling water. The peptides (each 2 mmol/L) were spiked into 20 mL solution of this solution. Afterwards, the taste threshold was determined by means of duo-trio-tests as previously described (using chicken soup as reference).

No end group written: not given here.

“Arg-Asn-Gly-Pro-Arg (RNGPR; Poultry) [SEQ ID NO: 17]”: the Threshold in water entry with sensory panel [1] is “tasteless”. In addition, in the assay on sensory panel [2], the “Taste properties in model broth” value was “kokumi, umami” and the “Threshold in model broth” value amounted to 101 µmol/L. Besides, the DoT factor in assay [3] was found to be 0.0.
On to EDAPVLH [SEQ ID NO: 7], for which, in the assay on sensory panel [1], the “Taste properties in water” value is “astringent” and the Threshold in water is 565 µmol/L. In addition, the “Taste threshold in food products, Model broth” value in the assay on sensory panel [4] worked out at 236 µmol/L. Also, in the assay on sensory panel [2], the “Taste threshold in model broth” value was found to be 236 µmol/L. In addition, the DoT factor in assay [3] turned out to be 0.1.
In the assay with sensory panel [1], EDEVLATP [SEQ ID NO: 21] displayed a Threshold in water of 894 µmol/L. For the same substance, in the assay on Panelists, the “Average perceived salt isointensity” value is 59.8 mmol/L NaCl, the “Salt-taste enhancing or reducing property” value is “salt-tase enhancing” and the Enhancement or reduction came to 20%. Also, in the assay with sensory panel [2], the “Threshold in model broth” value was 96 µmol/L.
Regarding EETPSHD [SEQ ID NO: 9], the Threshold in water in the assay with sensory panel [1] worked out at 283 µmol/L. Moreover, in the assay with sensory panel [2], the “Taste properties in model broth” value is “umami, kokumi” and the “Threshold in model broth” value was found to be 36 µmol/L. For the same substance, the DoT factor in assay [3] worked out at 0.1.
EEVEEEEVE [SEQ ID NO: 10] came in with a Threshold in water in the assay on sensory panel [1] of 233 µmol/L. Besides, in the assay with sensory panel [2], the “Taste properties in model broth” value is “umami, kokumi” and the “Threshold in model broth” value was found to be 34 µmol/L. For the same substance, the DoT factor in assay [3] is listed as 0.1.
Turning to EFDARPT [SEQ ID NO: 8], the Threshold in water result in the assay on sensory panel [1] was “tasteless”. Also, in the assay on Panelists, the “Average perceived salt isointensity” value turned out to be 66.7 mmol/L NaCl, the “Salt-taste enhancing or reducing property” value is given as “salt-tase enhancing” and the Enhancement or reduction amounted to 33%. Also, in the assay with sensory panel [2], the “Taste properties in model broth” value was “kokumi, salty” and the “Threshold in model broth” value is 351 µmol/L. For the same substance, the DoT factor in assay [3] is recorded as 0.0.
As for EFDEKAPD [SEQ ID NO: 11], in the assay with sensory panel [1], the “Taste properties in water” value is reported as “bitter” and the Threshold in water was 865 µmol/L. In addition, in the assay on Panelists, the “Average perceived salt isointensity” value came out at 62.1 mmol/L NaCl, the “Salt-taste enhancing or reducing property” value was “salt-tase enhancing” and the Enhancement or reduction is 24%. Moreover, the “Threshold in model broth” value in the assay on sensory panel [2] is 67 µmol/L.
As to EFDEKPAD [SEQ ID NO: 6], the Threshold in water entry in the assay with sensory panel [1] was “tasteless”. Besides, in the assay on Panelists, the “Average perceived salt isointensity” value was found to be 60.0 mmol/L NaCl, the “Salt-taste enhancing or reducing property” value is listed as “salt-tase enhancing” and the Enhancement or reduction worked out at 20%. For the same substance, in the assay with sensory panel [2], the “Threshold in model broth” value came to 94 µmol/L.
Consider EGDSAAI [SEQ ID NO: 19], for which the Threshold in water entry in the assay on sensory panel [1] is “tasteless”. Moreover, in the assay with sensory panel [2], the “Taste properties in model broth” value is “umami, kokumi” and the “Threshold in model broth” value was 212 µmol/L. Moreover, the DoT factor in assay [3] is recorded as 0.2.
ENAPDQK [SEQ ID NO: 12] had a Threshold in water in the assay on sensory panel [1] of 907 µmol/L. For the same substance, in the assay with sensory panel [2], the “Taste properties in model broth” value is on record as “kokumi, umami” and the “Threshold in model broth” value is 137 µmol/L. Further, the DoT factor in assay [3] was found to be 0.2.
In the assay with sensory panel [1], EPEGDVHQ [SEQ ID NO: 20] gave a Threshold in water of 243 µmol/L. In addition, in the assay with sensory panel [2], the “Taste properties in model broth” value is on record as “umami, kokumi” and the “Threshold in model broth” value came out at 61 µmol/L.
In the assay with sensory panel [1], “Glu-Ala-Glu-Phe-Asp (EAEFD; Poultry) [SEQ ID NO: 3]” registered a Threshold in water of 116 µmol/L. In the assay with Panelists, the “Average perceived salt isointensity” value worked out at 43.0 mmol/L NaCl, the “Salt-taste enhancing or reducing property” value is given as “salt-tase reducing” and the Enhancement or reduction is 14%. The “Taste threshold in food products, Model broth” value with sensory panel [4] worked out at 95 µmol/L. Further, the “Taste threshold in model broth” value in the assay with sensory panel [2] was 95 µmol/L.
In turn, “Glu-Asp-Met-Ala-Pro (EDMAP; Poultry) [SEQ ID NO: 13]” showed a Threshold in water in the assay with sensory panel [1] of 1024 µmol/L. In the assay on Panelists, the “Average perceived salt isointensity” value is 43.8 mmol/L NaCl and the Enhancement or reduction was found to be 13%. Also, in the assay with sensory panel [2], the “Taste properties in model broth” value is “kokumi, salty” and the “Threshold in model broth” value worked out at 151 µmol/L. The DoT factor in assay [3] is reported as 0.2.
As to “Pro-Gln-Pro-Glu-Arg (PQPER; Poultry) [SEQ ID NO: 5]”, the Threshold in water in the assay on sensory panel [1] is 705 µmol/L. In addition, in the assay with sensory panel [4], the “Taste threshold in food products, Model broth” value came to 133 µmol/L. Besides, the “Threshold in model broth” value with sensory panel [2] came out at 133 µmol/L. The DoT factor in assay [3] was found to be 0.0. Further, in the assay on sensory panel [5] (commercial chicken soup), the “Not differentiated up to max concentration tested in commercial chicken soup” value is given as over 2 mmol/L and the “Taste threshold in food products, Commercial chicken soup” value is given as “No effect”.
Consider “Pro-Glu-Arg-Asn-Glu (PERNE; Poultry) [SEQ ID NO: 4]”, for which the Threshold in water in the assay on sensory panel [1] worked out at 100 µmol/L. In addition, the “Threshold in model broth” value in the assay on sensory panel [2] amounted to 231 µmol/L. In assay [3], the DoT factor was 0.1.
Consider “Pro-Ile-Asn-Asp-Asn (PINDN; Poultry) [SEQ ID NO: 14]”, for which, in the assay on sensory panel [1], the Threshold in water result is listed as “tasteless”. Besides, in the assay with Panelists, the “Average perceived salt isointensity” value amounted to 63.6 mmol/L NaCl, the “Salt-taste enhancing or reducing property” value is “salt-tase enhancing” and the Enhancement or reduction was determined as 27%. Further, the “Threshold in model broth” value in the assay with sensory panel [2] worked out at 26 µmol/L.
On to “Pro-Leu-Pro-Arg (PLPR; Poultry) [SEQ ID NO: 2]”, for which, in the assay with sensory panel [1], the “Taste properties in water” value is “astringent” and the Threshold in water is 296 µmol/L. Further, the “Taste threshold in food products, Model broth” value with sensory panel [4] came out at 112 µmol/L. In the assay with sensory panel [2], the “Taste properties in model broth” value was “umami, kokumi” and the “Threshold in model broth” value came to 112 µmol/L. In assay [3], the DoT factor amounted to 0.0. In addition, in the assay with sensory panel [5] (chicken soup versus model broth), the “Threshold in model broth, times lower than in commercial chicken soup” value was 4 times. The “Taste threshold in food products, Commercial chicken soup” value in the assay with sensory panel [5] (commercial chicken soup) turned out to be 418 µmol/L.
With “Pro-Thr-Asp-Leu (PTDL; Poultry) [SEQ ID NO: 15]”, in the assay with sensory panel [1], the Threshold in water entry is “tasteless”. Also, the “Threshold in model broth” value in the assay with sensory panel [2] came to 97 µmol/L.
For “Pro-Val-Ala-Glu (PVAE; Poultry) [SEQ ID NO: 16]”, in the assay with sensory panel [1], the Threshold in water came out at 688 µmol/L. Also, in the assay on Panelists, the “Average perceived salt isointensity” value is given as 62.0 mmol/L NaCl, the “Salt-taste enhancing or reducing property” value is “salt-tase enhancing” and the Enhancement or reduction turned out to be 24%. Besides, in the assay with sensory panel [2], the “Taste properties in model broth” value was “kokumi, salty” and the “Threshold in model broth” value is 243 µmol/L. Further, the DoT factor in assay [3] turned out to be 0.7.
For “Pro-Val-Leu-Lys (PVLK; Poultry) [SEQ ID NO: 1]”, the Threshold in water entry in the assay on sensory panel [1] is “tasteless”. In addition, in the assay on Panelists, the “Average perceived salt isointensity” value was 42.9 mmol/L NaCl, the “Salt-taste enhancing or reducing property” value is recorded as “salt-tase reducing” and the Enhancement or reduction was determined as 14%. Moreover, the “Taste threshold in food products, Model broth” value in the assay on sensory panel [4] was determined as 296 µmol/L. For the same substance, in the assay with sensory panel [2], the “Threshold in model broth” value is 296 µmol/L. Also, the DoT factor in assay [3] was determined as 0.0.
RAEDTATYY [SEQ ID NO: 18] registered a Threshold in water in the assay with sensory panel [1] of 610 µmol/L. In the assay on sensory panel [2], the “Taste properties in model broth” value was “kokumi, umami” and the “Threshold in model broth” value is 247 µmol/L. The DoT factor in assay [3] amounted to 0.0.
